Where “and” joins values, the source holds several entries; their conditions need not be identical. Equal entries are not always repeated. Calls of active or inactive are those of the source.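 How the source made its calls: active means EC50 at or below a set limit, with no effect in the paired counter-screen assay; inactive means the rest.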
Molecular target: Aedes aegypti neuropeptide Y-like receptor 7 (NPYLR7)
Experiment: agonists of mosquito NPYLR7 receptor, confirmation, cell-based, Aedes aegypti, hit validation, mosquito biting behavior (AID 1259427);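 further: potency of agonists that activate the receptor and raise the calcium signal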
Details: HEK293T NPYLR7/Galpha15/GCaMP6s, calcium fluorescence

Row | SMILES | EC50
1 | CCCc1nn2c(N)c(C=C3C=C(Cl)C(=O)C(Cl)=C3)c(=O)nc2s1 | > 20 µM (inactive)
2 | CC1CC2(C)Oc3ccccc3C3OCC1(CO)C(C)C32 (centres undefined) | > 20 µM (inactive)
3 | CC(=O)NCCc1ccc(O)c(O)c1 | inactive
4 | CCCS(=O)(=O)N1CCN=C1SCc1ccccc1C | > 20 µM (inactive)
5 | COC(=O)C1CCN(S(=O)(=O)c2c(F)cc(F)cc2Br)CC1 | > 20 µM (inactive)
6 | CCOC(=O)C1=C(C)NC(C)=C(C(=O)OCC)C1c1cc(Cl)ccc1OC(F)F | > 20 µM (inactive)
7 | CCN1CC(=Cc2cc(C)n(C3CC3)c2C)C(=O)C(=Cc2cc(C)n(C3CC3)c2C)C1 | > 20 µM (inactive)
8 | O=C(Nc1cccc(-c2nnco2)c1)C1CCCCC1 | > 20 µM (inactive)
9 | O=c1nc2sc3[nH]c(=O)sc3cc-2s1 | < 0.039 µM (inactive)
10 | COc1ccc(OC)c(CCNc2nc3cnc(-c4cc(OC)c(OC)c(OC)c4)cc3n2C)c1 | 12.7 µM
11 | CN1C(=S)N(C2CCCCC2)C(=O)/C1=C\c1ccc2c(c1)OCO2 | > 20 µM (inactive)
12 | CCN1C(=Cc2cc(C)[n+](C3CCCCC3)c(C)c2)Sc2ccccc21 | > 20 µM (inactive)
13 | CC1CCCCC1OCCNC(=O)C1(c2ccc(F)cc2)CCC1 (centres undefined) | > 20 µM (inactive)
14 | Cc1cccc(C2=N/C(=C\c3cc4cc5c6c(c4oc3=O)CCCN6CCC5)C(=O)O2)c1 | inactive
15 | CC(C)NC[C@H](O)c1ccc(O)c(O)c1 | < 39 nM (inactive) and > 20 µM (inactive)
16 | O=C1OC2(c3cc(Br)c(O)cc3Oc3c2cc(Br)c(O)[c]3[Hg])c2ccccc21 (centres undefined) | < 0.039 µM (inactive)
17 | COc1ccc(-c2cnn(CCC(N)=O)c2)c(C)c1 | > 20 µM (inactive)
18 | CC(=O)OC(C)C[N+](C)(C)C (centres undefined) | > 20 µM (inactive)

The next lines start with the values.

Row | EC50 | SMILES
19 | inactive | O=C(O)CCN1C(=O)/C(=C/c2ccc(O)cc2)SC1=S
20 | > 20 µM (inactive) | O=P1(Nc2cc(C(F)(F)F)ccc2Cl)C=C(c2ccccc2)OC(c2ccccc2)=C1
21 | < 0.039 µM (inactive) | N#Cc1c(N)nc2c(c1N)C(Sc1ccccc1)c1ccc(O)cc1O2 (centres undefined)
22 | 19.2 µM | Cc1nn(C)c(Cl)c1/C=C1/CCCc2c1nc1ccccc1c2C(=O)O
23 | > 20 µM (inactive) | Cc1nc(=O)c(-c2ccccc2)c(C)n1-c1ccccc1O
24 | inactive | CCN(CC)c1ccc2c(-c3ccccc3C(=O)O)c3ccc(=[N+](CC)CC)cc-3oc2c1
25 | > 20 µM (inactive) | O=C(N=Nc1c(O)[nH]c2ccc(Br)cc12)c1ccccc1Cl
26 | > 20 µM (inactive) | COc1cc(C(=O)N2CCOC(c3ccccc3)C2)cc(OC)c1C (centres undefined)
27 | > 20 µM (inactive) | COc1ccc(N2C(=O)/C(=C\c3ccc[nH]3)N(C)C2=S)c([N+](=O)[O-])c1
28 | > 20 µM (inactive) | CSc1nnc2c(n1)OC(c1ccc(OC(=O)c3ccc(Br)cc3)cc1)Nc1ccccc1-2 (centres undefined)
29 | 2.66 µM | NC(=NCCCCCCN=C(N)N=C(N)Nc1ccc(Cl)cc1)N=C(N)Nc1ccc(Cl)cc1
30 | > 20 µM (inactive) | CCOC(=O)N1CCN(c2ccc(/C=C(\C#N)c3nc4ccccc4[nH]3)o2)CC1
31 | inactive | CC(=NNc1ncnc2sc(C)c(C)c12)c1ccccn1
32 | > 20 µM (inactive) | CNC(=O)c1cnc(/C=C/c2csc(-c3ccsc3)n2)[nH]c1=O
33 | > 20 µM (inactive) | CCC(C)n1cc(/C=C2/C(=O)NC(=O)N(c3ccc4c(c3)OCO4)C2=O)c2ccccc21 (centres undefined)
34 | > 20 µM (inactive) | CSCCC(C(=O)O)N1C(=O)/C(=C/c2ccc(O)cc2)SC1=S (centres undefined)
35 | > 20 µM (inactive) | O=C1/C(=C/c2cccc(F)c2)Oc2c1ccc(O)c2CN1CCN(CCO)CC1
36 | > 20 µM (inactive) | COCCCN(Cc1ccc(C(C)(C)C)cc1)Cc1cccn1Cc1cccc(C)c1
37 | 17.1 µM | CS(=O)(=O)c1ccc(-c2cccc3c2OC(CNC(=O)c2cc[n+]([O-])cc2)C3)cc1 (centres undefined)
38 | < 0.039 µM (inactive) | CCN(CC)c1ccc2cc(C(N)=O)/c(=N\NC(N)=S)oc2c1
39 | inactive | CCN1C(=Cc2ccc3cc(C)ccc3[n+]2CC)Sc2ccccc21
